Reference: patent US12102087B2 (priority 2012, dated 2024)
Read-outs that look alike come from different tables or passages of the source.

Key:
Format in all cases: in vivo
[1] = test system: Phytophthora infestans; test: whole plant or invertebrate; conditions: Phytophthora infestans, 72 h; for pest or weed control at 0.005 ppm: application rate 0.005 ppm a.i.; for pest or weed control at 0.01 ppm: application rate 0.01 ppm a.i.; for pest or weed control at 0.0025 ppm: application rate 0.0025 ppm a.i.
[2] = test system: Alternaria solani; test: Alternaria test (tomatoes)/preventive; conditions: Alternaria solani, 72 h, read-out: Efficacy in % found; for pest or weed control at 25 ppm: application rate 25 ppm a.i.; for pest or weed control at 100 ppm: application rate 100 ppm a.i.
Excerpt: (§1) A synergistic effect of fungicides is always present when the fungicidal activity of the active compound combinations exceeds the total of the activities of the active compounds when applied individually. The expected activity for a given combination of two active compounds can be calculated as follows (cf. Colby, S. R., “Calculating Synergistic and Antagonistic Responses of Herbicide Combinations”, Weeds 1967, 15, 20-22):
(§2) If • X is the efficacy when active compound A is applied at an application rate of m ppm (or g/ha), • Y is the efficacy when active compound B is applied at an application rate of n ppm (or g/ha), • E is the efficacy when the active compounds A and B are applied at application rates of m and n ppm (or g/ha), respectively, and
Alternaria Test (Tomatoes)/Preventive • Solvent: 24.5 parts by weight of acetone • 24.5 parts by weight of dimethylacetamide • Emulsifier: 1 part by weight of alkylaryl polyglycol ether
(§3) To produce a suitable preparation of active compound, 1 part by weight of active compound is mixed with the stated amounts of solvent and emulsifier, and the concentrate is diluted with water to the desired concentration.
(§4) To test for preventive activity, young plants are sprayed with the preparation of active compound at the stated rate of application. After the spray coating has dried on, the plants are inoculated with an aqueous spore suspension of Alternaria solani. The plants are then placed in an incubation cabinet at approximately 20° C. and a relative atmospheric humidity of 100%.
The test is evaluated 3 days after the inoculation. 0% means an efficacy which corresponds to that of the untreated control while an efficacy of 100% means that no disease is observed.

[3] = test system: Venturia inaequalis; test: Venturia test (apples)/preventive; conditions: Venturia inaequalis, 240 h, read-out: Efficacy in % found; for pest or weed control at 50 ppm: application rate 50 ppm a.i.; for pest or weed control at 100 ppm: application rate 100 ppm a.i.
Excerpt: as §1, §2
Venturia test (apples)/preventive • Solvent: 24.5 parts by weight of acetone • 24.5 parts by weight of dimethylacetamide • Emulsifier: 1 part by weight of alkylaryl polyglycol ether
as §3
as §4, with “conidia” for “spore”, “the causal agent of apple scab (Venturia inaequalis) and” for “Alternaria solani. The plants are”, “remain for 1 day” for “placed”
The plants are then placed in a greenhouse at approximately 21° C. and a relative atmospheric humidity of approximately 90%.
The test is evaluated 10 days after the inoculation. 0% means an efficacy which corresponds to that of the untreated control, while an efficacy of 100% means that no disease is observed.

[4] = test system: Sphaerotheca fuliginea; test: Sphaerotheca test (cucumbers)/preventive
Excerpt: as §1, §2
Sphaerotheca Test (Cucumbers)/Preventive • Solvent: 24.5 parts by weight of acetone • 24.5 parts by weight of dimethylacetamide • Emulsifier: 1 part by weight of alkylaryl polyglycol ether
as §3
as §4, with “Sphaerotheca fuliginea.” for “Alternaria solani.”, “a greenhouse” for “an incubation cabinet”, “23°” for “20°”, “approximately 70%.” for “100%.”
The test is evaluated 7 days after the inoculation. 0% means an efficacy which corresponds to that of the untreated control, while an efficacy of 100% means that no disease is observed.

[5] = read-out: Efficacy in % found, Table 3
[6] = read-out: Efficacy in % found, Table 4
[7] = read-out: Efficacy in % found, Table 5
[8] = read-out: Efficacy in % found, Table 6
[9] = Table 7, application rate 100 ppm a.i.

Molecule `CS(=O)(=O)Oc1ccccc1C1CC(c2csc(C3CCN(C(=O)Cn4nc(C(F)F)cc4C(F)F)CC3)n2)=NO1` (stereo not shown) [(I-1), 2-{3-[2-(1-{[3,5-bis(difluoromethyl)-1H-pyrazol-1-yl]acetyl}piperidin-4-yl)-1,3-thiazol-4-yl]-4,5-dihydro-1,2-oxazol-5-yl}phenyl methanesulfonate] has a pest or weed control at 0.005 ppm [1, 5] of 82%, a pest or weed control at 0.005 ppm [1, 6] of 67% and a pest or weed control at 0.01 ppm [1, 6] of 77%. For the same molecule, the pest or weed control at 0.0025 ppm [1, 7] was 52%, the pest or weed control at 0.0025 ppm [1, 8] was 48% and the pest or weed control at 25 ppm ([2]; Table 1) was 20%. For the same molecule, the pest or weed control at 100 ppm ([2]; Table 2) was 34%, the pest or weed control at 50 ppm ([3]; Table 10) was 0% and the pest or weed control at 100 ppm ([3]; Table 10) was 0%. It also gave a pest or weed control at 50 ppm ([3]; Table 11) of 4%, a pest or weed control at 100 ppm ([3]; Table 11) of 13% and a pest or weed control at 100 ppm ([3]; Table 12) of 21%. The pest or weed control at 100 ppm ([3]; Table 13) was 0%, the “Efficacy in % found” value [4, 9] was 19% and the “Efficacy in % found” value ([4]; Table 8, application rate 100 ppm a.i.) was 0%. The “Efficacy in % found” value ([4]; Table 9, application rate 100 ppm a.i.) was 38%.

`CS(=O)(=O)Oc1cccc(Cl)c1C1CC(c2csc(C3CCN(C(=O)Cn4nc(C(F)F)cc4C(F)F)CC3)n2)=NO1` (stereo not shown) [(I-3), 2-{3-[2-(1-{[3,5-bis(difluoromethyl)-1H-pyrazol-1-yl]acetyl}piperidin-4-yl)-1,3-thiazol-4-yl]-4,5-dihydro-1,2-oxazol-5-yl}-3-chlorophenyl methanesulfonate] gave a pest or weed control at 0.0025 ppm [1, 5] of 65%, a pest or weed control at 0.005 ppm [1, 6] of 5% and a pest or weed control at 0.01 ppm [1, 6] of 28%. The pest or weed control at 0.0025 ppm [1, 7] was 59%, the pest or weed control at 0.01 ppm [1, 7] was 87% and the pest or weed control at 0.0025 ppm [1, 8] was 79%. It also gave a pest or weed control at 25 ppm ([2]; Table 1) of 0%, a pest or weed control at 25 ppm ([2]; Table 2) of 30% and a pest or weed control at 100 ppm ([2]; Table 2) of 36%. The pest or weed control at 50 ppm ([3]; Table 10) was 0%, the pest or weed control at 100 ppm ([3]; Table 10) was 0% and the pest or weed control at 50 ppm ([3]; Table 11) was 0%. For the same molecule, the pest or weed control at 100 ppm ([3]; Table 11) was 15%, the pest or weed control at 100 ppm ([3]; Table 12) was 0% and the pest or weed control at 100 ppm ([3]; Table 13) was 0%. For the same molecule, the “Efficacy in % found” value [4, 9] was 43%, the “Efficacy in % found” value ([4]; Table 8, application rate 50 ppm a.i.) was 19% and the “Efficacy in % found” value ([4]; Table 9, application rate 50 ppm a.i.) was 29%.
